From US20240287138A1, “CYCLIC PEPTIDES FOR INHIBITING TNF RECEPTOR 1 ACTIVITY” (Merck Sharp & Dohme LLC, priority 2023, published 2024)
Read-outs that look alike come from different tables or passages of the source. Numbered stars: 1 amine (or outer) side, 2 acyl side, 3 side chain; on linkers, the order of the positions; unused ones are H or OH. Bridge positions count the residues as written; N and C are the ends. Square brackets hold non-standard residues; d marks the D form. Peptide text beside a SMILES is read from it. * marks the point of attachment. Trp(βS-Me,7-OMe) = COc1cccc2c([C@H](C)[C@H](N)C(=O)O)c[nH]c12; Trp(1-CH2COOH) = N[C@@H](Cc1cn(CC(=O)O)c2ccccc12)C(=O)O; X17 = Cc1[nH]c2ccccc2c1[C@H](C)[C@H](N[*:1])C(=O)[*:2]; X32 = NC(=O)c1ccc([C@@H](O)C(N[*:1])C(=O)[*:2])cc1; Trp(7-CN) = N#Cc1cccc2c(C[C@H](N)C(=O)O)c[nH]c12; Trp(7-Cl) = N[C@@H](Cc1c[nH]c2c(Cl)cccc12)C(=O)O; Ala(pyrimidin-5-yl) = N[C@@H](Cc1cncnc1)C(=O)O; Phe(4-CONH2) = NC(=O)c1ccc(C[C@H](N)C(=O)O)cc1; Phe(4-COOH) = N[C@@H](Cc1ccc(C(=O)O)cc1)C(=O)O; Trp(7-aza) = N[C@@H](Cc1c[nH]c2ncccc12)C(=O)O; dPro(4S-NH2) = N[C@@H]1CN[C@@H](C(=O)O)C1; Pip(5R-OH) = O=C(O)[C@@H]1CC[C@@H](O)CN1; X1 = O=C([C@@H]1CC[C@H](N[*:1])C1)[*:2]; X14 = CC(C)CCC[C@H](N[*:1])C(=O)[*:2]; Pip(4-aza) = O=C(O)[C@@H]1CNCCN1; 4Pal = N[C@@H](Cc1ccncc1)C(=O)O; NMeE = CN[C@@H](CCC(=O)O)C(=O)O; dHyp = O=C(O)[C@H]1C[C@H](O)CN1; NMehSer = CN[C@@H](CCO)C(=O)O; αMeS = C[C@](N)(CO)C(=O)O; Carboxymethyl = O=C(O)C*; Nle = CCCC[C@H](N)C(=O)O; NEtG = CCNCC(=O)O; Sar = CNCC(=O)O

Columns and labels:
[1] = biological target: T1, human TNFR1 extracellular domain (ECD) protein (Homo sapiens, UniProt P19438); test: SPR binding affinity to captured human TNFR1 ECD
T1 construct: HRV 3C protease cleavage site (C); 6His (C, cleaved yes); made in house; host or cells: Sf21 insect cells (baculovirus), secreted
T1 sequence (P19438 30-211): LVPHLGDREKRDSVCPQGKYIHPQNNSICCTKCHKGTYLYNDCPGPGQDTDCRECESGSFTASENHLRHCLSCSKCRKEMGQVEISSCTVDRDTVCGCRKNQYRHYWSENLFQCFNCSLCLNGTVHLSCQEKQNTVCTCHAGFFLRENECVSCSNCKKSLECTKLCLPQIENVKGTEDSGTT
Description: B. Procedure for Binding Affinity and Selectivity measured by SPR
Affinity and selectivity for hTNFR1 and TNFR2 was determined using SPR. Human TNFR1 or TNFR2 genes (extracellular domain only) were synthesized with a C-terminal Avi-tag, HRV 3C protease cleavage site followed by a 6His-tag for affinity purification. The final gene product was cloned into pBAC™-1 vector (Millipore Sigma) for expression testing in insect cells. Constructs were transfected into Sf21 cells for baculovirus generation followed by protein expression analysis in Sf21 and Tni cell lines. Large scale expression in Sf21 cells was performed using baculovirus infected insect cells (BIICs) infected at a MOI=2.0 grown for 72 h. Target proteins secreted into the media were harvested via centrifugation and concentrated using diafiltration. TNFR was purified by immobilized metal ion affinity chromatography (IMAC) using a Ni-Sepharose HisTrap™ column (Cytiva™). Isolated TNFR had His tag removed using HRV 3C protease followed by additional purification using Ni-NTA chromatography. Biotinylation was performed on Ni-NTA flow-through fractions concentrated to 45 μM and treated with BirA ligase (1:100, μg/μg ratio) in 50 mM Tris pH 7.5, 150 mM NaCl, 50 μM biotin, 10 mM magnesium acetate, 10 mM ATP at 4° C. for 20 h. Final purification of biotin-TNFR and buffer exchange into 20 mM HEPES pH 7.5, 150 mM NaCl was performed using a HiLoad® Superdex® 200 26/60 column (Cytiva™). Highly purified protein was aliquoted and stored at −80° C.
The SPR assay uses a Cytiva™ 8K or 8K+ biosensor instrument to measure the kinetics of peptide analytes binding to captured human TNFR1 extracellular domain (ECD) protein; peptide analytes are also evaluated for any off-target binding to human TNFR2 ECD protein in parallel. Recombinant human TNFR1 ECD and human TNFR2 ECD proteins, biotinylated via engineered C-terminal avi-tags, are immobilized to a regenerable streptavidin biosensor chip surface (Cytiva™ Biotin CAPture kit, Series S; cat. #28920234). Peptide analytes binding to immobilized human TNFR1 ECD protein and their subsequent dissociation are conducted in a buffer of 10 mM HEPES pH 7.4, 150 mM NaCl, 3 mM EDTA, 0.05% P20,2% DMSO under laminar flow conditions and measured in response units (RU), which are directly proportional to the accumulated mass on the surface of the biosensor chip; the biosensor chip surface is regenerated via Cytiva™ proprietary methods between the evaluation of each peptide analyte. […] The SPR assay determines the association and dissociation rate constants, kon and koff, for each peptide analyte and, from these values, calculates the binding affinity, […] reported in Table 2.

[2] = biological target: T2, human TNFR2 ECD protein (Homo sapiens, UniProt P20333); test: SPR off-target binding (selectivity) to human TNFR2 ECD
T2 construct: HRV 3C protease cleavage site (C); 6His (C, cleaved yes); made in house; host or cells: Sf21 insect cells (baculovirus), secreted
T2 sequence (P20333 23-257): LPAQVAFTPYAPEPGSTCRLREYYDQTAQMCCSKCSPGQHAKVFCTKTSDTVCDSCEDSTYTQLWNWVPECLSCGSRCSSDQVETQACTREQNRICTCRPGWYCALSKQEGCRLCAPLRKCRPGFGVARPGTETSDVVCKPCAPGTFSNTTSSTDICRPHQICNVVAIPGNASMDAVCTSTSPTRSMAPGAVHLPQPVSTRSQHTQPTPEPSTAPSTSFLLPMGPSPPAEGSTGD
How it was run: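 Biotinylated avi-tagged human TNFR1 or TNFR2 ECD, expressed in Sf21 insect cells, captured on streptavidin SPR chip; peptide analytes run in 10 mM HEPES pH 7.4, 150 mM NaCl, 3 mM EDTA, 0.05% P20, 2% DMSO. kon and koff measured, affinity KA calculated.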

[3] = biological target: T3, TNFα-induced NF-κB signal transduction pathway (TNFR1 signaling) in THP-1 cells (Homo sapiens, UniProt P19438); test: THP-1 Lucia NF-κB reporter cell assay, inhibition of TNFα-induced NF-κB signaling; assay type: cell-based; conditions: THP-1 NF-κB Lucia reporter cells, 10 ng/mL TNFα, 16-18 h, secreted luciferase; read-out: THP-1 IC50
T3 sequence (P19438 30-455): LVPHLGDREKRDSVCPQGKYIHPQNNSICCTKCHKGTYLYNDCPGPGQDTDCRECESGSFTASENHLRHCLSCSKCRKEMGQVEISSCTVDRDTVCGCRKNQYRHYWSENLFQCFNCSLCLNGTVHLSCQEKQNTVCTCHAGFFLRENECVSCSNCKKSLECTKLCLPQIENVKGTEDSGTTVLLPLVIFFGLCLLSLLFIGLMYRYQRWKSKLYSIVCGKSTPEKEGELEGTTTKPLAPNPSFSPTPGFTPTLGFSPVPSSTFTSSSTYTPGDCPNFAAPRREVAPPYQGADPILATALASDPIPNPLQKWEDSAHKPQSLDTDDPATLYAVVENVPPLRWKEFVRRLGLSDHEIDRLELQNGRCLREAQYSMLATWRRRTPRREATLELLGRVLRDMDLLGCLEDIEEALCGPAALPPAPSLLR
How it was run: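 Read-out: secreted Lucia luciferase luminescence (QUANTI-Luc) from supernatant after 16-18 h, 37 °C, 10 ng/mL rhTNFα. Peptide pretreatment 1 h at 37 °C; 20,000 cells/well, selection antibiotics omitted. IC50 via 4-parameter logistic model against min/max controls.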

SMILES	Kd ([1]; biotinylated human TNFR1 ECD on streptavidin chip, from kon and koff, read-out: SPR hTNFR1 KD) [nM]	Kd ([2]; biotinylated human TNFR2 ECD on streptavidin chip, read-out: SPR hTNFR2 KD) [nM]	IC50 [3] [nM]	Kd [1] [nM]	Kd [2] [nM]
CCCC[C@@H]1NC(=O)[C@@H]2CC[C@@H](C2)NC(=O)[C@H]([C@@H](C)c2c[nH]c3c(OC)cccc23)NC(=O)CN(C)C(=O)C([C@H](O)c2ccc(C(N)=O)cc2)NC(=O)[C@H](Cc2ccc(C(N)=O)cc2)NC(=O)[C@](C)(CO)NC(=O)[C@H](Cc2c[nH]c3c(C#N)cccc23)NC(=O)[C@H](Cc2ccc(C(=O)O)cc2)NC(=O)[C@H](CC(N)=O)NC(=O)[C@H]2C[C@H](N)CN2C(=O)[C@H](Cc2cn(CC(=O)O)c3ccccc23)NC(=O)[C@@H]2CC[C@@H](O)CN2C(=O)[C@H](Cc2ccncc2)NC1=O (stereo partly drawn) [SEQ ID NO. 87] (cyclo([4Pal][Pip(5R-OH)][Trp(1-CH2COOH)][dPro(4S-NH2)]N[Phe(4-COOH)][Trp(7-CN)][αMeS][Phe(4-CONH2)][X32][Sar][Trp(βS-Me,7-OMe)][X1][Nle]))	0.02	> 1000	0.7	–	–
COc1cccc2c([C@H](C)[C@@H]3NC(=O)CN(C)C(=O)[C@H](Cc4ccc(O)cc4)NC(=O)[C@H](Cc4ccc(C(N)=O)cc4)NC(=O)[C@](C)(CO)NC(=O)[C@H](Cc4c[nH]c5c(Cl)cccc45)NC(=O)[C@H](Cc4ccc(C(=O)O)cc4)NC(=O)[C@H](CC(N)=O)NC(=O)[C@H](CCC(=O)O)N(C)C(=O)[C@H](Cc4c[nH]c5ccccc45)NC(=O)[C@@H]4CNCCN4C(=O)[C@H](Cc4ccncc4)NC(=O)[C@H](CCCC(C)C)NC(=O)CSC[C@@H](C(N)=O)NC3=O)c[nH]c12 [SEQ ID NO. 93] ({CH2CO}-[X14][4Pal][Pip(4-aza)]W[NMeE]N[Phe(4-COOH)][Trp(7-Cl)][αMeS][Phe(4-CONH2)]Y[Sar][Trp(βS-Me,7-OMe)]C-NH2; thioether N-14)	–	–	2.7	0.78	> 1000
CCCC[C@@H]1NC(=O)[C@@H]2CC[C@@H](C2)NC(=O)[C@H]([C@@H](C)c2c[nH]c3c(OC)cccc23)NC(=O)CN(C)C(=O)[C@H](Cc2ccc(O)cc2)NC(=O)[C@H](Cc2ccc(C(=O)O)cc2)NC(=O)[C@](C)(CO)NC(=O)[C@H](Cc2c[nH]c3c(Cl)cccc23)NC(=O)[C@H](Cc2ccncc2)NC(=O)[C@H](CC(N)=O)NC(=O)CN(CC)C(=O)[C@H](Cc2c[nH]c3ccccc23)NC(=O)[C@@H]2CNCCN2C(=O)[C@H](Cc2ccncc2)NC1=O [SEQ ID NO. 94] (cyclo([4Pal][Trp(7-Cl)][αMeS][Phe(4-COOH)]Y[Sar][Trp(βS-Me,7-OMe)][X1][Nle][4Pal][Pip(4-aza)]W[NEtG]N))	–	–	0.8	0.07	> 1000
CCCC[C@@H]1NC(=O)[C@@H]2CC[C@@H](C2)NC(=O)[C@H]([C@@H](C)c2c[nH]c3c(OC)cccc23)NC(=O)CN(C)C(=O)[C@H](Cc2ccc(O)cc2)NC(=O)[C@H](Cc2ccc(C(N)=O)cc2)NC(=O)[C@](C)(CO)NC(=O)[C@H](Cc2c[nH]c3c(Cl)cccc23)NC(=O)[C@H](Cc2ccc(C(=O)O)cc2)NC(=O)[C@H](CC(N)=O)NC(=O)[C@H]2C[C@H](OCC(=O)O)CN2C(=O)[C@H](Cc2c[nH]c3ccccc23)NC(=O)[C@@H]2CNCCN2C(=O)[C@H](Cc2ccncc2)NC1=O [SEQ ID NO. 95] (cyclo([4Pal][Pip(4-aza)]W[dHyp](Carboxymethyl)N[Phe(4-COOH)][Trp(7-Cl)][αMeS][Phe(4-CONH2)]Y[Sar][Trp(βS-Me,7-OMe)][X1][Nle]))	–	–	0.7	0.2	> 1000
CCCC[C@@H]1NC(=O)CSC[C@@H](C(N)=O)NC(=O)[C@H]([C@@H](C)c2c(C)[nH]c3ccccc23)NC(=O)CN(C)C(=O)[C@H](Cc2ccc(O)cc2)NC(=O)[C@H](Cc2ccc(C(N)=O)cc2)NC(=O)[C@](C)(CO)NC(=O)[C@H](Cc2c[nH]c3c(Cl)cccc23)NC(=O)[C@H](Cc2ccncc2)NC(=O)[C@H](CC(N)=O)NC(=O)[C@H](CCC(=O)O)N(C)C(=O)[C@H](Cc2c[nH]c3ccccc23)NC(=O)[C@@H]2CC[C@@H](O)CN2C(=O)[C@H](Cc2ccncc2)NC1=O [SEQ ID NO. 97] ({CH2CO}-[Nle][4Pal][Pip(5R-OH)]W[NMeE]N[4Pal][Trp(7-Cl)][αMeS][Phe(4-CONH2)]Y[Sar][X17]C-NH2; thioether N-14)	–	–	0.9	0.08	> 1000
CCCC[C@@H]1NC(=O)CSC[C@@H](C(N)=O)NC(=O)[C@H]([C@@H](C)c2c[nH]c3c(OC)cccc23)NC(=O)CN(C)C(=O)[C@H](Cc2ccc(O)cc2)NC(=O)[C@H](Cc2ccc(C(=O)O)cc2)NC(=O)[C@](C)(CO)NC(=O)[C@H](Cc2c[nH]c3c(Cl)cccc23)NC(=O)[C@H](Cc2ccncc2)NC(=O)[C@H](CC(N)=O)NC(=O)[C@H](CCC(=O)O)N(C)C(=O)[C@H](Cc2c[nH]c3ncccc23)NC(=O)[C@H](CCOC)N(C)C(=O)[C@H](Cc2ccncc2)NC1=O [SEQ ID NO. 99] ({CH2CO}-[Nle][4Pal][NMehSer](Me)[Trp(7-aza)][NMeE]N[4Pal][Trp(7-Cl)][αMeS][Phe(4-COOH)]Y[Sar][Trp(βS-Me,7-OMe)]C-NH2; thioether N-14)	–	–	3.7	0.15	> 1000
CCCC[C@@H]1NC(=O)[C@@H]2CC[C@@H](C2)NC(=O)[C@H]([C@@H](C)c2c[nH]c3c(OC)cccc23)NC(=O)CN(C)C(=O)[C@H](Cc2ccc(O)cc2)NC(=O)[C@H](Cc2ccc(C(N)=O)cc2)NC(=O)[C@](C)(CO)NC(=O)[C@H](Cc2c[nH]c3c(Cl)cccc23)NC(=O)[C@H](Cc2cncnc2)NC(=O)[C@H](CC(N)=O)NC(=O)[C@H](CCC(=O)O)N(C)C(=O)[C@H](Cc2c[nH]c3ccccc23)NC(=O)[C@@H]2CC[C@@H](O)CN2C(=O)[C@H](Cc2ccncc2)NC1=O [SEQ ID NO. 102] (cyclo([4Pal][Pip(5R-OH)]W[NMeE]N[Ala(pyrimidin-5-yl)][Trp(7-Cl)][αMeS][Phe(4-CONH2)]Y[Sar][Trp(βS-Me,7-OMe)][X1][Nle]))	–	–	0.5	0.2	> 1000
